In patent US9932333B2, “Benzothiazole compound and medicine containing same” (JAPAN SCIENCE AND TECHNOLOGY AGENCY, priority 2014, dated 2018):
pKd: −log10 of the molar value.

How the values were obtained:
[1] = molecular target: Aβ1-42 aggregated in advance (Homo sapiens, UniProt P05067); assay: Aβ affinity (Kd association curve from fluorescence intensity); type: binding; conditions: aggregated Aβ1-42 0.5 μM, phosphate buffer pH 7.4, room temperature 1 hour
Text: For compound (1a), the excitation wavelength was set to 460 nm, and the fluorescence wavelength was set to 515 nm. A Kd association curve was obtained from the fluorescence intensity using KaleidaGraph 4.5 (Synergy Software, Reading, Pa.).

angiotensin IV = angiotensin IV (Homo sapiens, UniProt P01019); assay: Oxidation reaction of angiotensin IV (Example 3); type: biochemical; conditions: light irradiation 1.5 hours, neutral buffer, 37° C.
Text: (§1) Then, the reaction was monitored with a mass spectrometer (MALDI-TOF MS) or LC/MS (ESI-Q).

methionine enkephalin = methionine enkephalin (Homo sapiens, UniProt P01210); assay: Oxidation reaction of methionine enkephalin (Example 3); type: biochemical; conditions: light irradiation 1.5 hours, neutral buffer, 37° C.
Text: as §1

amylin = molecular target: T1, amylin (Homo sapiens, UniProt P10997); assay: Oxidation reaction of amylin; type: biochemical; conditions: pre-incubation 0 h
T1 construct: amylin, a hormone essential for glycemic control
T1 sequence (P10997 34-70 limits assumed): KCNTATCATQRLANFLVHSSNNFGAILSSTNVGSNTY
Protocol: as §1
The amino acid analysis of oxidized Aβ1-42 and oxidized amylin (carried out by Peptide Institute, Inc.) was conducted. The oxidized Aβ1-42 and the oxidized amylin were enzymatically digested with endopeptidase Lys-C and chymotrypsin, respectively, and the obtained digests were analyzed with a mass spectrometer (MALD-TOF MS) and LC/MS/MS (ESI-Q-TOF).

Aβ1-42 aggregated in advance, sequence (P05067 672-713 limits assumed): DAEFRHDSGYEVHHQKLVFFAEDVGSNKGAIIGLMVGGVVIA

| Structure (SMILES) | pKd [1] | oxygenation of angiotensin IV (angiotensin IV) | oxygenation of methionine enkephalin (methionine enkephalin) [%] | oxygenation of amylin in a monomeric state (amylin) |
| --- | --- | --- | --- | --- |
| C[n+]1c(-c2cc3c4c(c2)CCCN4CCC3)sc2cc(Br)ccc21 [compound (1a)] | 5.96 | – | – | – |
| Cc1cc2nc3c(=O)[nH]c(=O)nc-3n(C[C@H](O)[C@H](O)[C@H](O)CO)c2cc1C [riboflavin, reference compound] | – | approximately 40% | ~60 | high oxidative activity against monomeric amylin |
